Data as given in patent publication US9040713B2, “Methods of managing blood sugar levels and compositions related thereto” (EMORY UNIVERSITY, priority 2010, dated 2015).

Columns and labels:
ob/ob mice = experiment: Intraperitoneal glucose tolerance test in ob/ob mice; format: in vivo, mouse; conditions: 5 mg/kg oral, glucose 2 g/kg i.p. 1 hour later
Procedure: Three-month-old mice were starved for 12 h and then orally administrated with vehicle (0.5% methylcellulose) or DDN (5 mg/kg). Cell lysates were prepared from liver and muscle tissues collected at 1 and 2 h after drug administration and analyzed by immunoprecipitation and immunoblotting. […] Three-month-old mice were starved for 12 h and then orally administrated with vehicle (0.5% methylcellulose) or DDN (5 mg/kg). Cell lysates were prepared from liver and muscle tissues collected at 1 and 2 h after drug administration and analyzed by immunoprecipitation and immunoblotting. (C) Hypoglycemic function of DDN in db/db mice. […] Blood glucose was monitored before and after drug administration at 1-hour intervals (*: P<0.05, **: P<0.01, n=5, Two-way ANOVA vs vehicle). […] Blood glucose was measured at 30-min intervals (*: P<0.05, **:P<0.01, n=5, Two-way ANOVA vs vehicle control).
(A) 4524-E7 provokes IR phosphorylation in various tissues of mice. […] Cell lysates from liver, muscle, and WAT were prepared at 3, 4, and 5 h after drug administration and analyzed by immunoblotting. (B) Basal and insulin-stimulated hepatic glucose production rates were measured by hyperinsulinemic-euglycemic clamp. […] Blood glucose was monitored at different time points as indicated (n=8, *: P<0.05, two-way ANOVA). […] Blood glucose was monitored at different time points as indicated (n=5, *: P<0.05, two-way ANOVA). […]

mice = experiment: Repeated dosing tolerability in mice; format: in vivo, mouse
Procedure: […] Mice were chronically treated with 4524-E7 for 2 weeks and tested if the compound can inhibit food intake.
In liver and muscle, DDN elicited demonstrable IR activation after 3-4 h (FIG. 3B, 1st panel). […] The liver was then dissected and homogenized after 5 min. […] Similarly to the observation in C57/BL6 mice, DDN induces IR signaling in the well-established mice models of non-insulin-dependent diabetes mellitus.

[1] = C57BL/6J mice, 5 mg/kg daily oral, 16 days

## CC(=O)Oc1ccc(OC(C)=O)c2c1C(=O)C(Cl)=C(Cl)C2=O [DDN, 5,8-diacetyloxy-2,3-dichloro-1,4-naphthoquinone]
ob/ob mice
  glucose tolerance: significant improvement in glucose tolerance
mice; [1]
  food intake and blood biochemistry: did not affect the food intake, or blood biochemistry
  pathological examination of brain, heart, liver, kidney and muscle: failed to detect any demonstrable toxicity
mice; administrated to animals for two weeks
  side effects: does not exhibit any intolerable side effects

## O=C1c2ccccc2C(=O)C2SC(Nc3ccc(Cl)cc3)=NC12 (centres unmarked) [4524-E7, 2-((4-chlorophenyl)amino)naphtho[2,3-d]thiazole-4,9(3aH,9aH)-dione]
ob/ob mice
  glucose tolerance: significant improvement of glucose tolerance
mice; 5 mg/kg, 2 weeks
  blood chemistry analysis: comparable results between drug-treated mice and vehicle control
  food intake and body weight compared to vehicle control: not significantly changed
mice; two week period
  pathological examination on all major organs: no demonstrable toxicity was detected
